Molecular target: T1, Put1p (Put1pΔ18) (Saccharomyces cerevisiae, UniProt P09368)
T1 sequence (P09368 19-476): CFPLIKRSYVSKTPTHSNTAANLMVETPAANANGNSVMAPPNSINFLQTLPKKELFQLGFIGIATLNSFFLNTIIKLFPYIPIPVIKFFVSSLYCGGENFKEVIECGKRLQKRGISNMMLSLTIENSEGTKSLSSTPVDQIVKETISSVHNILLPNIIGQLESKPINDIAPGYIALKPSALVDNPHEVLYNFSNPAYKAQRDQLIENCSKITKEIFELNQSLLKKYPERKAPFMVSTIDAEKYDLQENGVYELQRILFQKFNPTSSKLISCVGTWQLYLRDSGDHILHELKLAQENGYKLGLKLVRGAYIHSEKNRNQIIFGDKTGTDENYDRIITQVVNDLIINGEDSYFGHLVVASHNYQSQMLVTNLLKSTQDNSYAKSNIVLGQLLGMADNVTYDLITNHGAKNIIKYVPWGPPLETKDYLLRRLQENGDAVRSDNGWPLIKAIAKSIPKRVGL
Assay: proline:DCPIP assay, Lineweaver-Burk plot
Type: biochemical

Ki: 5.3 mM
Structure (SMILES): O=C(O)[C@@H]1CCCO1 [L-THFA]

— paper PMC2880193 (Archives of biochemistry and biophysics, 2010)
